We go through 13 compounds from patent publication US20230192617A1, “AZABICYCLIC(THIO)AMIDES AS FUNGICIDAL COMPOUNDS” (Bayer CropScience Aktiengesellschaft, priority 2020, published 2023).

The structures appear in SMILES notation.

A word on the inhibition: it is the change of the read-out against control, counted positive when it falls. In general, chromatographic logP refers to a lipophilicity value derived from retention on a column.

In data set [1] the test system is Alternaria brassicae. As to the kind of experiment: In vivo preventive test on Alternaria brassicae (leaf spot on radish or cabbage). Particulars: 500 ppm of active ingredient, preventive spray on radish or cabbage, evaluated 3 to 4 days after inoculation, read-out: efficacy. In outline: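 Young radish or cabbage plants were sprayed with compound dissolved in DMSO/acetone/Tween 80 and diluted in water; controls received solvent only. Inoculation by spraying A. brassicae spore suspension 24 h later, then 3–4 days at 20 °C and 100% relative humidity.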

The subject of data set [2] is Botrytis cinerea. As to the kind of experiment: In vivo preventive test on Botrytis cinerea (grey mould). Particulars: 500 ppm of active ingredient, preventive spray on gherkin or cabbage, evaluated 4 to 5 days after inoculation, read-out: efficacy. The procedure, abridged:
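Young gherkin or cabbage plants were sprayed with compound in DMSO/acetone/Tween 80 diluted in water, then inoculated 24 hours later with a B. cinerea spore suspension. Incubation lasted 4 to 5 days: gherkin at 17° C., 90% relative humidity; cabbage at 20° C., 100% relative humidity.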

Data set [3] has as its system Pyrenophora teres. As to the kind of experiment: In vivo preventive test on Pyrenophora teres (net blotch on barley). Particulars: 240 h, 500 ppm of active ingredient, preventive spray on barley, evaluated 10 days after inoculation, read-out: efficacy. The procedure: B-3. In Vivo Preventive Test on Pyrenophora Teres (Net Blotch on Barley) [table] The active ingredients were made soluble and homogenized in a mixture of Dimethyl sulfoxide/Acetone/Tween® 80 and then diluted in water to the desired concentration. The young plants of barley were treated by spraying the active ingredient prepared as described above. Control plants were treated only with an aqueous solution of Acetone/Dimethyl sulfoxide/Tween® 80. After 24 hours, the plants were contaminated by spraying the leaves with an aqueous suspension of Pyrenophora teres spores. The contaminated barley plants were incubated for 48 hours at 20° C. and at 100% relative humidity and then for 8 days at 20° C. and at 70-80% relative humidity.

Data set [4] has as its system Alternaria alternata. As to the kind of experiment: Alternaria alternata in vitro cell test. It counts as cell-based. To be noted: 120 h, 20 ppm of active ingredient, liquid culture, 5 days incubation, spectrometric measurement of mycelium growth, read-out: efficacy (inhibition of fungal growth). In outline:
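Liquid culture assay in which A. alternata spores in medium received DMSO-solubilized compound (final DMSO ≤1%). After 5 days, mycelium growth was measured spectrometrically. Inhibition was calculated against fungicide-free control wells.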

Data set [5] deals with Colletotrichum lindemuthianum. As to the kind of experiment: B-8. Colletotrichum lindemuthianum in vitro cell test. The format is cell-based. Particulars: 144 h, 20 ppm of active ingredient, 6 days incubation, liquid culture, absorbance, read-out: efficacy (inhibition of fungal growth). In outline:
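Spore suspension of C. lindemuthianum in liquid medium exposed to DMSO-solubilized compounds (final DMSO ≤1%) for 6 days. Mycelial growth read by absorbance, with inhibition calculated relative to compound-free control wells.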

The subject of data set [6] is Sphaerotheca fuliginea. As to the kind of experiment: In vivo preventive test on Sphaerotheca fuliginea (powdery mildew on cucurbits). Particulars: Podosphaera fuliginea, 192 h; 500 ppm of active ingredient; preventive spray on gherkin; evaluated 8 days after inoculation; read-out: efficacy. The procedure, abridged: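 Young gherkin plants were sprayed with compound in DMSO/acetone/Tween 80 diluted in water. They were inoculated 24 h later with a spore suspension of Sphaerotheca fuliginea. Plants were then kept for 8 days at 20 °C and 70–80% relative humidity.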

The test system of data set [7] is Colletotrichum lindemuthianum. As to the kind of experiment: In vivo preventive test on Colletotrichum lindemuthianum (leaf spot on bean). To be noted: 168 h, 500 ppm of active ingredient, preventive spray on bean, evaluated 7 days after inoculation, read-out: efficacy. The procedure: B-5. In Vivo Preventive Test on Colletotrichum lindemuthianum (Leaf Spot on Bean) [table] The active ingredients were made soluble and homogenized in a mixture of Dimethyl sulfoxide/Acetone/Tween® 80 and then diluted in water to the desired concentration. The young plants of bean were treated by spraying the active ingredient prepared as described above. Control plants were treated only with an aqueous solution of Acetone/Dimethyl sulfoxide/Tween® 80. After 24 hours, the plants were contaminated by spraying the leaves with an aqueous suspension of Colletotrichum lindemuthianum spores. The contaminated bean plants were incubated for 24 hours at 20° C. and at 100% relative humidity and then for 6 days at 20° C. and at 90% relative humidity.

Data set [8] can be described thus: Measurement of Log P values by HPLC on reversed phase columns (EEC directive 79/831 Annex V.A8). It counts as physicochemical. Particulars: reversed phase HPLC column. The procedure, abridged: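 Reversed-phase HPLC with UV detection per EEC 79/831 Annex V.A8, linear 10–95% acetonitrile gradient. Aqueous eluent: 0.1% formic acid (acidic), 0.001 M ammonium acetate (neutral), or 0.1% phosphoric acid (acidic); multiple values in one method joined by "+".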

Data set [9] concerns Botrytis cinerea. As to the kind of experiment: B-11. Botrytis cinerea in vitro cell test. To be noted: 144 h, 20 ppm of active ingredient, 6 days incubation, liquid culture, absorbance, read-out: efficacy (inhibition of fungal growth). It counts as cell-based. In outline:
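B. cinerea spores were grown in liquid culture with compound (DMSO ≤1% final). Mycelium growth was measured spectrometrically after 6 days, with inhibition taken as absorbance relative to untreated control wells.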

Data set [10] deals with Pyrenophora teres. As to the kind of experiment: B-10. Pyrenophora teres in vitro cell test. The format is cell-based. To be noted: 144 h, 20 ppm of active ingredient, 6 days incubation, liquid culture, absorbance, read-out: efficacy (inhibition of fungal growth). In outline:
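Liquid-culture assay on a P. teres spore suspension with compounds added to the medium from DMSO solutions, final DMSO ≤1%. Mycelium growth read spectrometrically after 6 days. Inhibition calculated from absorbance against untreated control wells.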

Setting [11] is: method [a]: LC-UV, acidic range, 0.1% formic acid in water and acetonitrile as eluent.

Consider `O=C(NC[C@H](F)c1ccc(Br)cc1Cl)c1c(Oc2cccc(C(F)F)c2)nnc2ccccc12` (racemic) [I-029], for which the pest or weed control at 500 ppm lay within 90 to 100% in data set [1]; 90 to 100% in [2]; 70 to 79% in data set [3]; 70 to 79% in data set [6]; 90 to 100% in [7]. The inhibition at 20 ppm in data set [4] and in data set [5] was 90 to 100% throughout. The compound further gave a chromatographic logP in [8] (setting [11]) of 4.01.
`Cc1ccc([C@@H](F)CNC(=O)c2c(Oc3cccc(Cl)c3)nnc3ccccc23)cc1C` (racemic) [I-048]: the pest or weed control at 500 ppm in data set [1], in [2], in data set [3] and in [7] was 90 to 100% in each case. In addition, the inhibition at 20 ppm in data set [4], in data set [5] and in data set [9] was 90 to 100% each time. For the same compound, in data set [8] (setting [11]), the chromatographic logP was determined as 4.05.
For the compound `O=C(NC[C@H](F)c1ccc(Cl)cc1Cl)c1c(Oc2cccc(C(F)(F)F)c2)cnc2c1OCCO2` (racemic) [I-108], the pest or weed control at 500 ppm in data set [1], in data set [2], in data set [3], in data set [6] and in data set [7] was 90 to 100% throughout. Moreover, the inhibition at 20 ppm in [4] and in data set [5] was 90 to 100% throughout. The same compound gave a chromatographic logP in data set [8] (setting [11]) of 3.77.
Consider `Cc1ccc2c(c1)CCC[C@@H]2NC(=O)c1c(Oc2cccc(C(F)(F)F)c2)cnc2c1OCCO2` (racemic) [I-112], for which the pest or weed control at 500 ppm in data set [1] was 90 to 100%; in data set [2], 90 to 100%; in data set [3] it was 80 to 89%; in data set [6] it was 90 to 100%; in data set [7], 90 to 100%. Also, the inhibition at 20 ppm in [4] and in data set [5] was 90 to 100% throughout. Also, the chromatographic logP in data set [8] (setting [11]) amounted to 3.8; in data set [8] (method [b]: LC-UV, neutral range, 0.001 molar ammonium acetate solution in water and acetonitrile as eluent), 3.79.
On to `Cc1ccc(C(F)(F)CNC(=O)c2c(Oc3cccc(C4CC4)c3F)nnc3c2N[C@@H](O)CC3)c(C)c1` (racemic) [I-116], for which the pest or weed control at 500 ppm in data set [1] lay in the range of 90 to 100%; in data set [2] it was 90 to 100%; in data set [3] it was 80 to 89%; in data set [6], 90 to 100%; in data set [7], 90 to 100%. In addition, the inhibition at 20 ppm in data set [4] and in data set [5] was 90 to 100% in each case. In [8] (setting [11]), the chromatographic logP stood at 3.74.
`Cc1cccc(Oc2nnc3ccccc3c2C(=O)NCC(F)(F)c2ccc(C)cc2C)c1` [I-017]: the pest or weed control at 500 ppm in data set [1] is 90 to 100%; in data set [2] it was 90 to 100%; in data set [3] it was 70 to 79%; in data set [6] it was 90 to 100%. Moreover, the inhibition at 20 ppm in [4] and in data set [5] was 90 to 100% throughout. Moreover, the chromatographic logP in data set [8] (setting [11]) came to 4.11.
With `Cc1ccc(C(F)(F)CNC(=O)c2c(Oc3cccc(Cl)c3)nnc3ccccc23)c(C)c1` [I-024], the pest or weed control at 500 ppm in data set [1] lay in the range of 90 to 100%; in [2] it was 90 to 100%; in data set [3] it was 70 to 79%; in [6], 90 to 100%; in data set [7], 90 to 100%. In addition, the inhibition at 20 ppm in [4] and in data set [5] was 90 to 100% throughout. The compound also showed a chromatographic logP in data set [8] (setting [11]) of 4.2.
`Cc1ccc(C(F)(F)CNC(=O)c2c(Oc3cccc(C(F)F)c3)nnc3ccccc23)c(C)c1` [I-033]: the pest or weed control at 500 ppm in data set [1] was in the range of 90 to 100%; in [2] it was 90 to 100%; in data set [3] it was 70 to 79%; in data set [6], 90 to 100%; in data set [7], 80 to 89%. The inhibition at 20 ppm in data set [4] and in data set [5] was 90 to 100% each time. Also, the chromatographic logP in data set [8] (setting [11]) stood at 3.92.
In the case of `Cc1ccc(C(F)(F)CNC(=O)c2c(Oc3cccc(C(F)(F)F)c3)cnc3ccoc23)c(C)c1` [I-066, N-[2-(2,4-dimethylphenyl)-2,2-difluoro-ethyl]-6-[3-(trifluoro-methyl)phenoxy]furo[3,2-b]pyridine-7-carboxamide], the pest or weed control at 500 ppm lay within 90 to 100% in data set [1], 90 to 100% in data set [2], 70 to 79% in data set [3] and 90 to 100% in data set [6]. For the same compound, the inhibition at 20 ppm in [4], in data set [5], in data set [9] and in data set [10] was 90 to 100% throughout. For the same compound, the chromatographic logP in data set [8] (setting [11]) worked out at 4.14.
As to `Cc1ccc(CCNC(=O)c2c(Oc3cccc(C(F)(F)F)c3)nnc3c2OCCO3)c(C)c1` [I-104], the pest or weed control at 500 ppm fell in the range of 90 to 100% in data set [1]; 90 to 100% in data set [2]; 80 to 89% in [3]; 90 to 100% in data set [6]; 90 to 100% in data set [7]. Further, the results for the inhibition at 20 ppm in data set [4] and in data set [5] were 90 to 100% and 80 to 89%, respectively. This compound also came in with a chromatographic logP in data set [8] (setting [11]) of 3.28.
In the case of `Cc1ccc(C(F)(F)CNC(=O)c2c(Oc3cccc(C4CC4)c3)nnc3ccccc23)c(C)c1` [I-218], the pest or weed control at 500 ppm in data set [1] was 90 to 100%; in [2] it was 90 to 100%; in data set [3] it was 80 to 89%; in data set [7], 90 to 100%. In addition, the inhibition at 20 ppm in data set [4], in data set [5], in [9] and in [10] was 90 to 100% each time. Moreover, the chromatographic logP in [8] (setting [11]) is 4.45.
Turning to `Cc1ccc(CCNC(=O)c2c(Oc3cccc(C(F)(F)F)c3)nnc3ccccc23)c(C)c1` [I-230], the pest or weed control at 500 ppm in data set [1] is 90 to 100%; in data set [2] it was 90 to 100%; in data set [3], 80 to 89%; in data set [6], 90 to 100%. The inhibition at 20 ppm in data set [4], in data set [5] and in [9] was 90 to 100% throughout.
Consider `Cc1ccc(CCNC(=O)c2c(Oc3cccc(C(F)(F)F)c3)nnc3ccsc23)c(C)c1` [I-231], for which the pest or weed control at 500 ppm was 90 to 100% in [1], 70 to 79% in data set [3] and 90 to 100% in [6]. For the same compound, in data set [9], the inhibition at 20 ppm fell in the range of 80 to 89%. In data set [8] (setting [11]), this compound gave a chromatographic logP of 4.77.
